Measurements reported in PMC10439952, “JT002, a small molecule inhibitor of the NLRP3 inflammasome for the treatment of autoinflammatory disorders” (Scientific Reports, 2023).

Tests used:
Lipophilicity comparison = assay type: physicochemical; details: compared with MCC950
caspase-1 = target: T1, caspase-1 (Homo sapiens, UniProt P29466); assay: Cell-free biochemical caspase-1 assay
T1 construct: Reaction Biology Corporation (assay run there as a service)
T1 sequence (P29466 120-297 limits assumed): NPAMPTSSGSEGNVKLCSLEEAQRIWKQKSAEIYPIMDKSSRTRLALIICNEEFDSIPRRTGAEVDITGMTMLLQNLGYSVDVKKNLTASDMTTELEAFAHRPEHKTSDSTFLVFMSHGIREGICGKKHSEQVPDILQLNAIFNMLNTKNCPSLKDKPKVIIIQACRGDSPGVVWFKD
T1 sequence (P29466 317-404 limits assumed): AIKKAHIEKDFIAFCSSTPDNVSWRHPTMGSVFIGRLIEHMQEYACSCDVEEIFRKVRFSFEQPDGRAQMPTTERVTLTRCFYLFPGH
Description: (§1) Cell viability was determined by addition of an equal volume of CellTiter-Glo® 2.0 reagent (Promega) to the remaining cells/supernatant in each well. Intracellular Caspase-1 activity was measured using the Caspase-Glo® assay (Promega) according to the manufacturer’s instructions. The biochemical capsase-1 assay was conducted at Reaction Biology Corporation (Malvern, USA). Human IL-1β, IL-1α, and TNFα and mouse IL-1β were measured in cell culture supernatants using homogeneous time resolved fluorescence assay kits (HTRF, Cisbio, Codolet, France). Human IL-18 was measured in cell culture supernatants using an ELISA kit (R&D Systems, Minneapolis, MN, USA). Plasma IL-1β concentrations were determined by Quantikine® ELISA (R&D Systems, Minneapolis, MN).

NLRP3 inflammasome = target: T2, NLRP3 inflammasome (Rattus norvegicus, UniProt D4A523); assay: Inhibition of IL-1β production in rat PBMCs stimulated by LPS + nigericin; assay type: cell-based; details: Rat PBMC, read-out: Geo Av IC50, IL-1β
T2 construct: host or cells: rat PBMCs
T2 sequence (D4A523 whole entry): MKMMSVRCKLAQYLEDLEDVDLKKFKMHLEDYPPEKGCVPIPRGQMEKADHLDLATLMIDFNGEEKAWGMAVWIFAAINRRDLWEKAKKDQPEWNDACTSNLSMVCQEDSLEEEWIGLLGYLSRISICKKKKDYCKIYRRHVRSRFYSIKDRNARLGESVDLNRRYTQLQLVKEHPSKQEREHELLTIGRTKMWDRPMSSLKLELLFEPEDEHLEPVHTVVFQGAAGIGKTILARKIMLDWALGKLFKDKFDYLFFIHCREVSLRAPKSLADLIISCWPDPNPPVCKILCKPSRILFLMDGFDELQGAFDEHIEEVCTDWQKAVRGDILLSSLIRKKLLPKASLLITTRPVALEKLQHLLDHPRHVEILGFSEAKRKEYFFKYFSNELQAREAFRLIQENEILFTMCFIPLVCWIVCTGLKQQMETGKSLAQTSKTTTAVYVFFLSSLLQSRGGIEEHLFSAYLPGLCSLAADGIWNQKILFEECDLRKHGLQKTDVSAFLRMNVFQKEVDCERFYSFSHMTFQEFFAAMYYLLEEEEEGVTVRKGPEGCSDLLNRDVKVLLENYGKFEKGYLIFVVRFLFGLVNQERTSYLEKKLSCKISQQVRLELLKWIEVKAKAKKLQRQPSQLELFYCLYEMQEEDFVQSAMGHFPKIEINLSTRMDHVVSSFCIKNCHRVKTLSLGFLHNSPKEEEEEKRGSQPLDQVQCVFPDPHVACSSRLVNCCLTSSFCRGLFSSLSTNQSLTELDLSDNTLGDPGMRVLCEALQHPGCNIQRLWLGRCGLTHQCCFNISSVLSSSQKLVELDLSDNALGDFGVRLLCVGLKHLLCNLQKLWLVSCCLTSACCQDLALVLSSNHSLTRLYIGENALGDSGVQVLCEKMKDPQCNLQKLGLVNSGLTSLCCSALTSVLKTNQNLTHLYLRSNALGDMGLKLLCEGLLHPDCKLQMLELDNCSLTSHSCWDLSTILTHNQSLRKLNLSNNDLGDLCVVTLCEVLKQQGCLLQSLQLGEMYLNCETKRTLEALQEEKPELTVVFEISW
Excerpt: (§2) Inflammasome activation and whole blood assays were essentially carried out as described earlier. Details can be found in the supplementary information section accompanying this publication. A protocol for blood draws from healthy volunteers and use of the blood in preclinical assays was approved by Western Institutional Review Board, Inc (Puyallup, WA, USA). Informed consent was obtained from each donor prior to the first blood draw.
4H). MS: m/z 433.1 (M+H+).
Inflammasome activation.PBMCs (iXCells Biotechnologies, San Diego, USA) were thawed the day before the assay and seeded in complete medium (RPMI 1640 medium with GlutaMAX, supplemented with an additional 2.5 g/L D-glucose, 10% Fet al Bovine Serum, 100 mM Sodium Pyruvate, 1% Penicillin/Streptomycin, 10 mM HEPES and 0.05 mM β -mercaptoethanol) in polystyrene V-bottom 96-well plates at 5x10^4 cells per well and incubated overnight at 37°C with 5% CO 2. […]
flagellin, prepared in Opt iMEM and combined with Lipofectamine 2000. […] After priming Nlrp3 -/- mBMDMs with 100 ng/mL of LPS for 3- 5 h, cells were exposed to 100 ng/mL L18- MDP and incubated overnight.At the end of the incubation period of the assays above, plates were briefly centri fuged and hal f of the cell culture supern atant remo ved and either analysed i mmediately or stored at - 80°C for subs equent cytokine […]

TNFα production = TNFα production in human PBMCs stimulated by LPS + ATP; assay type: cell-based; details: Human PBMC
Description: as §2, §1
4H). MS: m/z 433.1 (M+H+). […]

## CO[C@@H]1COc2c(S(=O)(=O)NC(=O)Nc3c4c(cc5c3CCC5)CCC4)cnn2C1 [JT002]
Lipophilicity comparison
  lipophilicity: lower lipophilicity than MCC950
caspase-1
  direct inhibition of caspase-1 enzymatic activity: not a direct inhibitor of caspase-1 enzymatic activity
NLRP3 inflammasome
  IC50: 159 nM
TNFα production; JT002 concentrations up to 1 µM
  effect on TNFα production: no effect
TNFα production; read-out: Geo Av IC50, TNFα
  IC50: > 1000 nM
